Legend:
[1] = test system: HEK293T cell aminopeptidase activity (Ala-AMC cleavage); experiment: Aminopeptidase assay with Ala-AMC in HEK293T cell extracts; assay type: biochemical, human; conditions: HEK293T cell extract, 10 µM inhibitor
Procedure: (§1) All enzyme assays described below were performed in the linear range of the assay, as determined from time-course studies. HEK293T cells were lysed by sonication in 50 mM TrisHCl buffer, pH 7.5, containing 40 mM KCl, 5 mM MgCl2, 0.5 mM ATP, and 1 mM DTT (Buffer 1).
(§2) To measure TPP2, the fluorescent substrate was Ala-Ala-Phe-AMC. Aminopeptidase (AP) assays were performed with Leu-AMC and Ala-AMC, which detect leucine aminopeptidase (LAP), puromycin-sensitive aminopeptidase (PSAP), and other enzymes. To measure the effect of aminopeptidase/proteasome inhibitors on cleavage of Ala-Ala-Phe-AMC and Leu-AMC, 1∶50 dilution of the cell extract was pre-incubated with the inhibitor and Buffer 1 for 30 min, followed by addition of 100 µM final concentration of the respective substrate. For Ala-AMC, the same dilution of the cell extract was pre-incubated with the inhibitor and 50 mM MOPS buffer, pH 7.5, containing 40 mM KCl, 5 mM MgCl2, 0.5 mM ATP, and 1 mM DTT (Buffer 2), followed by addition of 100 µM final concentration of the substrate. After incubation at 37°C for 1 hour, enzyme activity was quantified by fluorescence measurement of the substrate (380 nm excitation, 460 nm emission).
(§3) Figure 7 Effect of aminopeptidase inhibitors on Ala-AMC and Leu-AMC cleavage. HEK 293T cell extract (panels A–D) or recombinant PSAP (panels E–F) were treated with increasing concentrations of bestatin or puromycin for 30 minutes followed by the addition of substrate and incubation for 1 hour. Enzyme activity was determined by fluorescence measurement of AMC and expressed as percentage enzyme activity relative to the control without inhibitor. (A) Bestatin inhibition of HEK293T cell extract assayed with Ala-AMC. (B) Bestatin inhibition of HEK293T cell extract assayed with Leu-AMC. (C) Puromycin inhibition of HEK293T cell extract assayed with Ala-AMC. (D) Puromycin inhibition of HEK293T cell extract assayed with Leu-AMC. (E) Puromycin inhibition of purified PSAP assayed with Ala-AMC. (F) Puromycin inhibition of purified PSAP assayed with Leu-AMC. Error bars show standard error of mean (n = 4), points without error bars had error ranges smaller than the symbol size. Statistical analysis was performed using Student’s t-test: *, p≤0.05; **, p≤0.01; ***, p≤0.001; ns, no significant difference (p>0.05) versus the control.
(§4) Figure 8 Effect of proteasome inhibitors on Ala-AMC and Leu-AMC cleavage. HEK 293T cell extract or recombinant PSAP was treated with 10 µM of each of the proteasome inhibitors for 1 hour in addition to a 30 min pre-incubation without the substrate. Enzyme activity was determined by fluorescence measurement of AMC and expressed as percentage enzyme activity relative to the control without inhibitor. Panels A and B represent the effect of proteasome inhibitors on cleavage of Ala-AMC and Leu-AMC respectively, in HEK293T cell extract. […] Error bars show standard error of mean (n = 4). Statistical analysis was performed using Student’s t-test: *, p≤0.05; **, p≤0.01; ***, p≤0.001; ns, no significant difference (p>0.05) versus the control.

[2] = test system: HEK293T cell aminopeptidase activity (Leu-AMC cleavage); experiment: Aminopeptidase assay with Leu-AMC in HEK293T cell extracts; assay type: biochemical, human; conditions: HEK293T cell extract, 10 µM inhibitor
Procedure: as §1, §2, §3, §4

How did the “effect on cleavage of Ala-AMC” value [1] turn out when CN1C/C(=C/c2ccc(B(O)O)cc2)C(=O)/C(=C\c2ccc(B(O)O)cc2)C1 [AM114, reference compound] was run?
The value was “without effect”.

And the “effect on cleavage of Leu-AMC” value [2]?
Its value is “without effect”.

— PMC4117522, “Proteasome Inhibitors Alter Levels of Intracellular Peptides in HEK293T and SH-SY5Y Cells” (PLoS ONE, 2014)
